Data on seven compounds can be found in PubChem BioAssay (NCI).

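Growth conditions: 96-well plates. Treatment: test compound, 48 hours, 5 concentrations. Analysis: linear interpolation between bracketing concentrations; unreached endpoints set to highest concentration. TGI: total growth inhibition.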

Test systems include A549 NSCLC; HOP-62 NSCLC; LOX IMVI melanoma; NCI/ADR-RES ovarian; HL-60(TB) leukemia; OVCAR-8 ovarian; NCI-H522 lung; NCI-H460 lung; UACC-62 melanoma; IGROV1 ovarian; OVCAR-5 ovarian; NCI-H226 lung; SK-MEL-28 melanoma; EKVX NSCLC; MDA-MB-435; CCRF-CEM leukemia; U251 CNS; SF-268 CNS; SK-OV-3 ovarian.
Holding throughout (assay): inhibition of tumour cell growth, NCI panel, 48 h

As to `O=C(N(O)c1ccccc1Cl)C(O)(c1ccccc1)c1ccccc1`, the TGI in the experiment on A549 NSCLC is more than 100 µM; in the experiment with HOP-62 NSCLC, more than 100 µM; with LOX IMVI melanoma it was more than 100 µM; with NCI/ADR-RES ovarian, more than 100 µM; in the experiment on HL-60(TB) leukemia it was 64.7 µM; in the experiment on OVCAR-8 ovarian, more than 100 µM. Besides, the TGI in the experiment on NCI-H522 lung, with NCI-H460 lung, in the experiment on UACC-62 melanoma, in the experiment on IGROV1 ovarian, with OVCAR-5 ovarian and in the experiment with NCI-H226 lung was more than 100 µM each time. Moreover, the TGI in the experiment on SK-MEL-28 melanoma is more than 100 µM; with EKVX NSCLC, more than 100 µM; in the experiment with MDA-MB-435, more than 100 µM; with CCRF-CEM leukemia it was 41 µM; in the experiment on U251 CNS it was more than 100 µM; with SF-268 CNS it was more than 100 µM. This compound returned a TGI in the experiment with SK-OV-3 ovarian of more than 100 µM.
Consider `O=c1nc(N2CCNCC2)oc2cc(Cl)oc(=O)c12`, for which the TGI amounted to 20.2 µM in the experiment with A549 NSCLC; 14 µM with HOP-62 NSCLC; 5.89 µM in the experiment on LOX IMVI melanoma; 25.8 µM with NCI/ADR-RES ovarian; 8.47 µM with HL-60(TB) leukemia; 5.67 µM with OVCAR-8 ovarian. The TGI with NCI-H522 lung was 5.9 µM; with NCI-H460 lung it was 22.4 µM; in the experiment with UACC-62 melanoma, 25.2 µM; in the experiment on IGROV1 ovarian it was 16.6 µM; with OVCAR-5 ovarian it was 30 µM; with NCI-H226 lung it was 37.9 µM. Besides, the TGI was found to be 15.8 µM in the experiment with SK-MEL-28 melanoma; 19.4 µM with EKVX NSCLC; 18.5 µM in the experiment on MDA-MB-435; 47.8 µM in the experiment with CCRF-CEM leukemia; 16 µM in the experiment on U251 CNS; 15.9 µM with SF-268 CNS. The compound further had a TGI in the experiment with SK-OV-3 ovarian of 33.2 µM.
Consider `Cc1ncc([N+](=O)[O-])n1CCNCCCCn1ccnc1[N+](=O)[O-]`, for which the TGI in the experiment on A549 NSCLC, in the experiment with HOP-62 NSCLC, in the experiment with LOX IMVI melanoma, in the experiment on NCI/ADR-RES ovarian, in the experiment with HL-60(TB) leukemia and with OVCAR-8 ovarian was more than 100 µM throughout. For the same compound, the TGI in the experiment with NCI-H522 lung, in the experiment on NCI-H460 lung, in the experiment on UACC-62 melanoma, with IGROV1 ovarian, in the experiment on OVCAR-5 ovarian and with NCI-H226 lung was more than 100 µM each time. Besides, the TGI in the experiment on SK-MEL-28 melanoma, with EKVX NSCLC, with MDA-MB-435, with CCRF-CEM leukemia, with U251 CNS and with SF-268 CNS was more than 100 µM each time. The TGI with SK-OV-3 ovarian is more than 100 µM.
On to `O=c1c2ncn(C3CCCO3)c2n(-c2ccccc2)c(=S)n1-c1ccccc1` (stereo not drawn), for which the TGI in the experiment with A549 NSCLC, in the experiment on HOP-62 NSCLC, in the experiment with LOX IMVI melanoma, in the experiment with NCI/ADR-RES ovarian, in the experiment with HL-60(TB) leukemia and in the experiment with OVCAR-8 ovarian was more than 100 µM in each case. Moreover, the TGI in the experiment with NCI-H522 lung, in the experiment with NCI-H460 lung, in the experiment with UACC-62 melanoma, with IGROV1 ovarian, with OVCAR-5 ovarian and in the experiment with NCI-H226 lung was more than 100 µM throughout. Moreover, the TGI with SK-MEL-28 melanoma, with EKVX NSCLC, with MDA-MB-435, in the experiment on CCRF-CEM leukemia, in the experiment with U251 CNS and in the experiment with SF-268 CNS was more than 100 µM each time. This compound also returned a TGI in the experiment on SK-OV-3 ovarian of more than 100 µM.
Regarding `c1ccc2c(c1)SCCC2NC1=NCCO1` (stereo not drawn), the TGI in the experiment on A549 NSCLC, in the experiment on HOP-62 NSCLC, in the experiment on LOX IMVI melanoma, in the experiment with NCI/ADR-RES ovarian, in the experiment on HL-60(TB) leukemia and with OVCAR-8 ovarian was more than 100 µM each time. In addition, the TGI in the experiment with NCI-H522 lung, in the experiment on NCI-H460 lung, with UACC-62 melanoma, with IGROV1 ovarian, with OVCAR-5 ovarian and with NCI-H226 lung was more than 100 µM each time. Also, the TGI with SK-MEL-28 melanoma, with EKVX NSCLC, in the experiment on MDA-MB-435, in the experiment with CCRF-CEM leukemia, with U251 CNS and in the experiment with SF-268 CNS was more than 100 µM throughout. Also, the TGI in the experiment with SK-OV-3 ovarian was more than 100 µM.
In the case of `CCOC(=O)/C=C(\C(=O)OCC)n1ccc(=O)n(Cc2cn(CCCCOC(C)=O)nn2)c1=O`, the TGI in the experiment on A549 NSCLC is 45.9 µM; in the experiment on HOP-62 NSCLC, 41.2 µM; with LOX IMVI melanoma, 48.1 µM; in the experiment with NCI/ADR-RES ovarian, 53.3 µM; with HL-60(TB) leukemia, 1.25 µM; with OVCAR-8 ovarian, 20.1 µM. The TGI with NCI-H522 lung is 4.03 µM; with NCI-H460 lung it was 57.7 µM; in the experiment with UACC-62 melanoma it was 33.2 µM; in the experiment on IGROV1 ovarian, 43 µM; with OVCAR-5 ovarian it was 31.4 µM; with NCI-H226 lung it was 32.7 µM. For the same compound, the TGI in the experiment on SK-MEL-28 melanoma worked out at 21.2 µM; in the experiment on EKVX NSCLC, 31.4 µM; with MDA-MB-435 it was 18.1 µM; in the experiment with CCRF-CEM leukemia it was 4.59 µM; in the experiment on U251 CNS, 30.9 µM; in the experiment on SF-268 CNS, 36.9 µM. For the same compound, the TGI in the experiment with SK-OV-3 ovarian is more than 65.5 µM.
In the case of `C=C(Nc1nc2ccc(C)cc2s1)C(=O)C(CC)C(=O)C(CC)CC1C(=O)NC(=O)NC1=O` (stereo not drawn), the TGI in the experiment on A549 NSCLC, with HOP-62 NSCLC, in the experiment with LOX IMVI melanoma, in the experiment with NCI/ADR-RES ovarian, in the experiment with HL-60(TB) leukemia and with OVCAR-8 ovarian was more than 100 µM throughout. The TGI in the experiment with NCI-H522 lung, in the experiment with NCI-H460 lung, in the experiment on UACC-62 melanoma, with IGROV1 ovarian, in the experiment with OVCAR-5 ovarian and with NCI-H226 lung was more than 100 µM throughout. The TGI in the experiment with SK-MEL-28 melanoma, in the experiment with EKVX NSCLC, in the experiment on MDA-MB-435, in the experiment on CCRF-CEM leukemia, in the experiment with U251 CNS and in the experiment on SF-268 CNS was more than 100 µM each time. The same compound came in with a TGI in the experiment with SK-OV-3 ovarian of more than 100 µM.
